Reference: US10428080B2, “TBK/IKK inhibitor compounds and uses thereof” (Merck Patent GmbH, priority 2015, dated 2019)

Key:
TBK1 = target: T1, TBK1 (Homo sapiens, UniProt Q9UHD2); test: TBK Biochemical Assay; conditions: read-out: TBK1 IC50
T1 sequence (Q9UHD2 1-729): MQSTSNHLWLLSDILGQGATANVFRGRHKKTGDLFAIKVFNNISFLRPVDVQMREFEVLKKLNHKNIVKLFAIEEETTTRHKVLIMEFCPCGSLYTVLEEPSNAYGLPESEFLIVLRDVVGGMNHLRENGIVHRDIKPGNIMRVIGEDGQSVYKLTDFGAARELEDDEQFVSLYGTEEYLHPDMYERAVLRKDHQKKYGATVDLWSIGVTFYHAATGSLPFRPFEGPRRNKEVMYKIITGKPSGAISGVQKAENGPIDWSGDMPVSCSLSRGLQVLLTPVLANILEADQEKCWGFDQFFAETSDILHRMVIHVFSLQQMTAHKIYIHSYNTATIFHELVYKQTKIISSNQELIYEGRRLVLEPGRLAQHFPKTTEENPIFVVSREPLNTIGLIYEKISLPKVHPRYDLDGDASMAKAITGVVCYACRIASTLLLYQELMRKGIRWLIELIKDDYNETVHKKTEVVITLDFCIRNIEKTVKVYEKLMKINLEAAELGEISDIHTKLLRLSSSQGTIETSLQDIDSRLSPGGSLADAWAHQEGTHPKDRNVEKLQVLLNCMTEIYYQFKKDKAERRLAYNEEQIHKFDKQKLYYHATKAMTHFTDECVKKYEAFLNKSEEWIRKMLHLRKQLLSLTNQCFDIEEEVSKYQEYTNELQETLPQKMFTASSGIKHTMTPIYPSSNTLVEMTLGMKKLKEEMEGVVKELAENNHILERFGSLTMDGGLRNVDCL
Procedure, shortened: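 Caliper LabChip mobility-shift readout of substrate and product after 90 min of TBK1 reaction at 25° C and stop-buffer addition. Compounds tested in 1:4 serial dilution over 10 points from 30 uM final at 1% DMSO; staurosporine 10 uM final defines full inhibition.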

[1] = test system: phosphorylation of the IRF-3 protein in MDA-MB-468 cells; test: pIRF3 immunocytochemistry cell based assay; conditions: Homo sapiens; MDA-MB-468 cells, Poly(I:C) stimulation; read-out: pIRF3 IC50
Procedure, shortened: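 After 2 h stimulation with Poly(I:C) (10 ug/ml), following 1 h compound pre-treatment (10-point, 3-fold dilution, top 10 uM), MDA-MB-468 cells were fixed and stained with anti-pIRF3 antibody. pIRF3 fluorescence was normalized to PI staining or cell count on an Acumen cytometer. IC50 curves were derived from this.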

IKKε = target: T2, IKKε (Homo sapiens, UniProt Q14164); test: IKKe Biochemical Assay; conditions: read-out: IKKε IC50
T2 sequence (Q14164 1-716): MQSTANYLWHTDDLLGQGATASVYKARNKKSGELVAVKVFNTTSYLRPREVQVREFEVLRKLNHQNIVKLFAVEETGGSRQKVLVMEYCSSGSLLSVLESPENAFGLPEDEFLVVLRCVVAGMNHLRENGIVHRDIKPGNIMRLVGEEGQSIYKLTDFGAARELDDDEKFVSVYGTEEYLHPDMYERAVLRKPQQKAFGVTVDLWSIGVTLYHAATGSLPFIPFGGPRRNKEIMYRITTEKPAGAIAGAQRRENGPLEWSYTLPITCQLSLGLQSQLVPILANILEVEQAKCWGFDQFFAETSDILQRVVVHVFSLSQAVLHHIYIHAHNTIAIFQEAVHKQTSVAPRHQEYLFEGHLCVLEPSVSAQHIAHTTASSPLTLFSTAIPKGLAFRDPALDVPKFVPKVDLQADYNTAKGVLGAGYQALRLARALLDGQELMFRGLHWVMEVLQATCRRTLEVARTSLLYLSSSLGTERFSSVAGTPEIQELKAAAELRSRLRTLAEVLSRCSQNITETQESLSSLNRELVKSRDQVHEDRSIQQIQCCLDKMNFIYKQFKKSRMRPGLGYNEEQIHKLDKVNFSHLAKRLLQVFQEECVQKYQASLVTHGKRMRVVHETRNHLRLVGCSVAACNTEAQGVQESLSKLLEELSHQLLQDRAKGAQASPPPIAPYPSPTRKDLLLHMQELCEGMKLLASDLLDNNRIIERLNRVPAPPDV
Procedure, shortened: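 Activity was measured as mobility-shift separation of phosphorylated from unphosphorylated substrate on a LabChip EZ Reader. Compound was titrated from 30 uM final in 10 points, 1:4 steps, with 1% DMSO, and enzyme plus substrate reacted 90 min at 25° C before stop buffer. Control wells held 10 uM staurosporine.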

Row | Structure (SMILES) | IC50 (TBK1) | IC50 [1] | IC50 (IKKε)
1 | COc1cc(C(=O)NCC(C)(C)CN(C)C)ccc1-c1cc2nccc(-c3ccc(NC4CCOCC4)c(C#N)c3)c2o1 [Compound 516, 4-{7-[3-Cyano-4-(tetrahydro-pyran-4-ylamino)-phenyl]-furo[3,2-b]pyridin-2-yl}-N-(3-dimethylamino-2,2-dimethyl-propyl)-3-methoxy-benzamide] | < 100 nM | < 100 nM | < 100 nM
2 | COc1cc(C(=O)N2C[C@H]3C[C@@H]2CN3C)ccc1-c1cc2nccc(-c3ccc(NC4CCOCC4)c(C#N)c3)c2o1 [Compound 517] | < 100 nM | < 100 nM | < 100 nM
3 | COc1cc(C(=O)N2C3CCCC2CC3)ccc1-c1cc2nccc(-c3ccc(NC4CCOCC4)c(C#N)c3)c2o1 [Compound 519] | < 100 nM | 100 to 1000 nM | < 100 nM
4 | COc1cc(C(=O)N(C)C)ccc1-c1cc2nccc(-c3ccc(NC4CCNC4)c(C#N)c3)c2o1 (stereo not drawn) [Compound 521] | < 100 nM | < 100 nM | < 100 nM
